Reference: patent publication US8586533B2, “Treatment of early-stage osteoarthritis” (Kaohsiung Medical University, priority 2008, dated 2013)

Legend:
Assay type in all cases: cell-based
[1] = tested on: human articular chondrocytes; experiment: Dimethylmethylene blue (DMMB) assay of GAG levels in chondrocyte cultures; settings: azaC group, 3 and 7 days after azaC induction, P<0.01
Procedure: (§1) Chondrocyte cultures were divided into 4 groups.
Alginate beads were dissolved as described above and further digested by papain (300 μg/ml) at 60° C. for 18 hours. The levels of DNA and sulfated glycosaminoglycan (GAG) in the samples were quantified using Hoechst 33258 dye and 1,9-dimethylmethylene blue dye, respectively. A standard curve for the DMMB assay was generated using aqueous chondroitin sulfate C solution (Sigma-Aldrich, St. Louis, Mo.) at concentrations ranging from […].

[2] = tested on: human articular chondrocytes; experiment: Quantitative real-time PCR of mRNA levels in azaC-induced terminal differentiation culture model; settings: azaC group
Procedure: Chondrocyte cultures were divided into 4 groups. […] Louis, Mo.) for 48 hours.

[3] = tested on: human articular chondrocytes; experiment: TUNEL staining, rate of apoptosis in chondrocyte cultures; settings: azaC cultures, 14 days, P<0.01
Procedure: as §1
We measured apoptotic cells using the TUNEL (terminal deoxy-nucleotidyl transferase mediated dUTP nick end labeling) staining method using the In Situ Cell Death Detection Kit, TMR red (Roche, Mannheim, Germany). Following the manufacturer's guidelines, cells were fixed with 4% paraformaldehyde in phosphate buffered saline (PBS) at a cell density of 1×10^6/ml and incubated at room temperature for 10 minutes, and then settled on a slide by centrifugation at a speed of 2,000 rpm for 5 minutes using a cytospin (Cytospin 3; Shandon, Cheshire, UK). Slides were rinsed twice with PBS, and the cells were permeabilized by incubating in permeabilization solution (0.1% Triton X-100 in 0.1% sodium citrate) for 2 minutes on ice. The TUNEL reaction mixture containing terminal deoxynucleotidyl transferase and rhodamine (the labeling dye) was added to the slides and incubated at 37° C. in a humidified chamber in the dark for 60 minutes. The reaction was stopped by a blocking buffer (0.1% Triton X-100/0.5% bovine serum albumin in PBS). Cells were counterstained by 4′,6-diamidino-2-phenylindole (DAPI). The slides were observed under a fluorescence microscope with an excitation wavelength of 580 nm for rhodamine and 365 nm for DAPI. Cell nuclei were stained blue by DAPI, and only apoptotic cells were stained red by rhodamine. Stained cells were counted in 5 microscopic fields (1.566 mm^2/field) on each slide. Data were analyzed using Image-Pro Plus analysis software (Media Cybernetics, Silver Spring, Md.). The rate of apoptosis in chondrocytes was defined as the ratio of red-stained cells (apoptotic cells) to blue-stained cells (total cells).
By using TUNEL staining, the rate of apoptosis in human articular chondrocyte cultures in the control, azaC, and azaC plus PTH groups were compared after 14 days of PTH(1-34) treatment (for the azaC plus PTH group).

[4] = 7 and 10 days after azaC induction, P<0.01
[5] = after 3 days of azaC induction, P<0.01
[6] = after 7 days of azaC induction, P<0.05

Nc1ncn([C@@H]2O[C@H](CO)[C@@H](O)[C@H]2O)c(=O)n1 [azaC, 5-azacytidine]
GAG levels versus control [1]: significantly lower | ALP mRNA level [2, 4]: 5.3-10.9 times that of control | Col10a1 mRNA level [2, 4]: 2.3-2.4 times that of control | Bax expression ([2]; 14 days after azaC induction, P<0.01): 2.1 times that of control | aggrecan mRNA level ([2]; after 3 days of azaC induction (15 μg/ml, 48 hours), P<0.05): 56 % of control | Col2a1 mRNA level [2, 5]: 46.3 % of control | IHH expression [2, 5]: 6.5 times that of control | Bcl-2 mRNA level ([2]; after 3 days, P<0.05): 3.2 times that of control | aggrecan mRNA level ([2]; after 7 days of azaC induction, P<0.01): 31 % of control | Col2a1 mRNA level [2, 6]: 64.8 % of control | IHH expression [2, 6]: 2.6 times that of control | IHH expression ([2]; after 10 days of azaC induction, P<0.05): 2.7 times that of control | Bcl-2 mRNA level ([2]; after 10 days, P<0.01): 4.7 times that of control | rate of apoptosis versus control cultures [3]: 4.8 fold increase
